Structures are written as SMILES. Bounds are passed on as bounds.

As a reminder, the EC50 is the concentration giving half of the maximal effect.

The assay has as its system Dirofilaria immitis. In words: Dirofilaria immitis microfilariae motility assay or L4 stage assay (the source does not say which gave the EC50 values). The class given is cell-based. The settings on record: 72 h, read-out: EC50 values.

Take `O=C(Nc1nc(-c2ccccn2)ns1)c1ccc(I)cc1` [Compound 67, 4-iodo-N-[3-(2-pyridyl)-1,2,4-thiadiazol-5-yl]benzamide]: the EC50 was under 5 µM.
As for `CC(C)(C)OC(=O)N1CCN(C(=O)c2ccc(C(=O)Nc3nc(-c4ccccn4)ns3)cc2)CC1` [Compound 70, tert-butyl 4-[4-[[3-(2-pyridyl)-1,2,4-thiadiazol-5-yl]carbamoyl]benzoyl]piperazine-1-carboxylate], the figure is under 5 µM.
As for `O=C(Nc1nc(-c2ccccn2)ns1)c1ccc(C(=O)N2CCCCC2)cc1` [Compound 72, 4-(piperidine-1-carbonyl)-N-[3-(2-pyridyl)-1,2,4-thiadiazol-5-yl]benzamide], the figure is under 5 µM; as for `O=C(Nc1nc(-c2ccccn2)ns1)c1ccc(NC2CCNCC2)cc1` [Compound 79, 4-(4-piperidylamino)-N-[3-(2-pyridyl)-1,2,4-thiadiazol-5-yl]benzamide], under 5 µM.
On to `O=C(Nc1nc(-c2ccccn2)ns1)c1ccc(Cc2ccccc2)cc1` [Compound 89, 4-benzyl-N-[3-(2-pyridyl)-1,2,4-thiadiazol-5-yl]benzamide], for which the 50% effective concentration (EC50) is under 5 µM.
Consider `O=C(Nc1nc(-c2cccc(-c3cccnc3)n2)ns1)c1ccc(C(F)(F)F)cc1` [Compound 116, N-[3-[6-(3-pyridyl)-2-pyridyl]-1,2,4-thiadiazol-5-yl]-4-(trifluoromethyl)benzamide], for which the EC50 is under 5 µM.
The same measure for `O=C(Nc1nc(-c2ccccn2)ns1)c1ccc(NCc2ccccc2)cc1` [Compound 118, 4-(benzylamino)-N-[3-(2-pyridyl)-1,2,4-thiadiazol-5-yl]benzamide]: under 5 µM.
The same measure for `O=C(Nc1nc(-c2ccccn2)ns1)c1cccc(Nc2ccccc2)c1` [Compound 119, 3-anilino-N-[3-(2-pyridyl)-1,2,4-thiadiazol-5-yl]benzamide]: under 5 µM.
Consider `CC(C)(C)COc1ccnc(-c2nsc(NC(=O)c3ccc(C(F)(F)F)cc3)n2)c1` [Compound 143, N-[3-[4-(2,2-dimethylpropoxy)-2-pyridyl]-1,2,4-thiadiazol-5-yl]-4-(trifluoromethyl)benzamide], for which the concentration for a half-maximal effect (EC50) is under 5 µM.

(Values after patent publication US9643963B2, “Antiparasitic compounds” (Avista Pharma Solutions, Inc., priority 2013, dated 2017).)
